From ChEMBL document CHEMBL1137804, “Natural product-based anti-HIV drug discovery and development facilitated by the NCI developmental therapeutics program” (J Nat Prod, 2001)
In brackets after ≈: the same amount, converted by molar mass.

Tests used:
[1] = system: Human immunodeficiency virus 2; test: Antiviral activity against HIV2; type: functional, organism-based
[2] = system: Human immunodeficiency virus 1; test: Antiviral activity against HIV1 LAI in human MT2 cells assessed as virus-induced cytopathic effect after 72 hrs; type: functional; settings: Human immunodeficiency virus 1, LAI, MT2, 72 h; read-out: ED50 (the source's name)
[3] = Therapeutic index, ratio of cytotoxicity against human MT2 cells to EC50 for HIV1 LAI; type: cell-based; settings: read-out: TI
[4] = target: Human immunodeficiency virus type 1 integrase (Human immunodeficiency virus 1, UniProt Q7ZJM1); test: Inhibition of HIV1 integrase-catalyzed disintegration activity
Human immunodeficiency virus type 1 integrase, sequence (Q7ZJM1 whole entry): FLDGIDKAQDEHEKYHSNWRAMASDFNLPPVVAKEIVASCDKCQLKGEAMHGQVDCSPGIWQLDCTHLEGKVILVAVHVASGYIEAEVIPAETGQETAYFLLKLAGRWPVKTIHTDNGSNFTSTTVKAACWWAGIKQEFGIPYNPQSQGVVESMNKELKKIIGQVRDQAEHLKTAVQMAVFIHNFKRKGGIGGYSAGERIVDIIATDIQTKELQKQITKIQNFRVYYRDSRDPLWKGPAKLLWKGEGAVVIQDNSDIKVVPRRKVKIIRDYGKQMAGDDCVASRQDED

[5] = system: Human immunodeficiency virus 1; test: Antiviral activity against HIV1 RF in human CEM-SS cells assessed as inhibition of virus-induced cytopathic effect; type: functional, organism-based; settings: Human immunodeficiency virus 1, RF
[6] = Therapeutic index, ratio of cytotoxicity against human CEM-SS cells to EC50 for HIV1 RF; type: cell-based; settings: read-out: TI
[7] = target: Human immunodeficiency virus type 1 reverse transcriptase (Human immunodeficiency virus 1, UniProt Q72547); test: Inhibition of HIV1 reverse transcriptase
[8] = system: Human immunodeficiency virus 1; test: Antiviral activity against HIV1 RF in human H9 cells assessed as inhibition of virus-induced cytopathic effect by formazan-based conventional colorimetric technique; type: functional, organism-based; settings: Human immunodeficiency virus 1, RF
[9] = Therapeutic index, ratio of cytotoxicity against human H9 cells to EC50 for HIV1 RF; type: cell-based; settings: read-out: TI
[10] = system: Human immunodeficiency virus 1; test: Antiviral activity against azidothymidine-resistant HIV1 G9106; type: functional, organism-based; settings: Human immunodeficiency virus 1, G9106
[11] = system: Human immunodeficiency virus 1; test: Antiviral activity against pyridinone-resistant HIV1 A17; type: functional, organism-based; settings: Human immunodeficiency virus 1, A17
[12] = system: Human immunodeficiency virus 1; test: Antiviral activity against HIV1 in human CEM-SS cells assessed as inhibition of virus-induced cytopathic effect; type: functional, organism-based; settings: Human immunodeficiency virus 1, CEM-SS
[13] = Therapeutic index, ratio of cytotoxicity against human H9 cells to EC50 for HIV1 3B; type: cell-based; settings: read-out: TI
[14] = system: Human immunodeficiency virus 1; test: Antiviral activity against HIV1 RF in human MT2 cells assessed as virus-induced cytopathic effect after 72 hrs; type: functional; settings: Human immunodeficiency virus 1, RF, MT2, 72 h; read-out: ED50 (the source's name)
[15] = Therapeutic index, ratio of cytotoxicity against human MT2 cells to EC50 for HIV1 RF; type: cell-based; settings: read-out: TI
[16] = system: Human immunodeficiency virus 1; test: Antiviral activity against HIV1 3B in human H9 cells assessed as inhibition of virus-induced cytopathic effect by formazan-based conventional colorimetric technique; type: functional, organism-based; settings: Human immunodeficiency virus 1, 3B
H9 = test: Cytotoxicity against human H9 cells; type: cell-based
[17] = system: Human immunodeficiency virus 1; test: Antiviral activity against HIV1 RF in human CEM cells; type: functional, organism-based; settings: Human immunodeficiency virus 1, RF, CCRF-CEM
[18] = system: Human immunodeficiency virus 1; test: Antiviral activity against HIV1 Rojo in human CEM cells; type: functional, organism-based; settings: Human immunodeficiency virus 1, Rojo, CCRF-CEM

CSC[C@H](NC(=O)COc1cccc2cnccc12)C(=O)N[C@@H](Cc1ccccc1)[C@H](O)C(=O)N1CSC(C)(C)[C@H]1C(=O)NC(C)(C)C
EC50 [1]: 20 nM

O=C(/C=C/c1ccc(O)c(O)c1)O[C@@H]1C[C@](O)(C(=O)O)C[C@@H](OC(=O)/C=C/c2ccc(O)c(O)c2)[C@H]1O
EC50 [2]: 1 µg/mL (≈ 1.94 µM) | selectivity ratio [3]: 150 | IC50 [4]: 1280 nM

O=C(O[C@@H]1C[C@](OC(=O)c2cc(O)c(O)c(O)c2)(C(=O)O)C[C@@H](OC(=O)c2cc(O)c(O)c(O)c2)[C@H]1OC(=O)c1cc(O)c(O)c(O)c1)c1cc(O)c(O)c(O)c1
EC50 [5]: 500 nM | selectivity ratio [6]: 20 | IC50 [7]: 800 nM

CSC[C@H](NC(=O)COc1cccc2cnccc12)C(=O)N[C@@H](Cc1ccccc1)[C@H](O)C(=O)N1CSC[C@H]1C(=O)NC(C)(C)C
EC50 [8]: 20 nM | selectivity ratio [9]: > 4.6

CC(C)=CCOc1c(CC=C(C)C)c(O)nc2ccccc12
EC50 [5]: 1640 nM | selectivity ratio [6]: 17

CN1CCCCC1c1c(O)cc(O)c2c(=O)cc(-c3ccccc3)oc12 (centres undefined)
EC50 [5]: 260 nM | selectivity ratio [6]: 3

COC(=O)C(=O)O[C@]1(C(=O)O)C[C@@H](OC(=O)/C=C/c2ccc(O)c(O)c2)[C@H](O)[C@H](OC(=O)/C=C/c2ccc(O)c(O)c2)C1
EC50 [2]: 4 µg/mL (≈ 6.64 µM) | selectivity ratio [3]: 87 | IC50 [4]: 946 nM

CCCc1cc(=O)oc2c3c(c4c(c12)OC(C)(C)CC4)O[C@@H](C)[C@H](C)[C@@H]3O [7,8-DIHYDROCALANOLIDE B]
EC50 [5]: 100 nM | selectivity ratio [6]: 99.8

C=CC(C)(C)C1(CC=C(C)C)C(=O)Nc2ccccc2C1=O (centres undefined) [BUCHAPINE]
EC50 [5]: 940 nM | selectivity ratio [6]: 31 | IC50 [7]: 10000 nM

CCCc1cc(=O)oc2c3c(c4c(c12)OC(C)(C)C=C4)O[C@H](C)[C@@H](C)[C@@H]3O [CALANOLIDE A]
EC50 [5]: 200 nM | selectivity ratio [6]: 103 | EC50 [10]: ≤ 30 nM | EC50 [11]: ≤ 600 nM

CC(C)=CCC[C@]1(C)C=Cc2c(ccc3c2C(=O)C(O)=C(C2=C(C4=C(O)C(=O)c5c(ccc6c5C=C[C@@](C)(CCC=C(C)C)O6)C4=O)C(=O)c4c(ccc5c4C=C[C@@](C)(CCC=C(C)C)O5)C2=O)C3=O)O1 [CONOCURVONE]
EC50 [12]: 20 nM

CCCc1cc(=O)oc2c3c(c4c(c12)OC(C)(C)C=C4)O[C@@H](C)[C@H](C)[C@@H]3O [COSTATOLIDE]
EC50 [5]: 200 nM | selectivity ratio [6]: > 20

O=c1[nH]cnc2c1ncn2[C@H]1CC[C@@H](CO)O1 [DIDANOSINE]
selectivity ratio [13]: 1760 | selectivity ratio [9]: 1760

Cc1cc(O)c(C=O)c2c1C(=O)Oc1c(COC(=O)/C=C/C(=O)O)c(O)c(C(=O)O)c(C)c1O2 [FUMARPROTOCETRARIC ACID]
EC50 [14]: 8400 nM | selectivity ratio [15]: > 4.61

Nc1ccn([C@@H]2CS[C@H](CO)O2)c(=O)n1 [LAMIVUDINE]
EC50 [16]: 60 nM | EC50 [8]: 60 nM

Nc1ncnc2c1ncn2[C@@H]1O[C@H](CO)C[C@@H]1F [LODENOSINE]
EC50 [16]: 1160 nM | EC50 [8]: 1160 nM | selectivity ratio [13]: > 17 | selectivity ratio [9]: > 17

COc1cc(C)cc2c(-c3c(O)cc(O)c4c3C[C@@H](C)N[C@@H]4C)cc(-c3cc(-c4c(O)cc(O)c5c4C[C@@H](C)N[C@@H]5C)c4cc(C)cc(OC)c4c3O)c(O)c12 [MICHELLAMINE A]
EC50 [12]: 1000 nM

CO[C@@H]1C[C@@H](C[C@H]2CC[C@H](C)[C@H]([C@@H](C)C(=O)O)O2)O[C@]2(O[C@](C)([C@H]3CC[C@@](C)([C@@H]4O[C@@H]([C@H]5O[C@@](O)(CO)[C@H](C)C[C@@H]5C)C[C@@H]4C)O3)C[C@H]2C)[C@@H]1C [NIGERICIN]
EC50 [8]: 6 nM | IC50 (H9): 140 nM

COc1cc2c[n+](C)c3c4cc5c(cc4ccc3c2cc1OC)OCO5 [NITIDINE CHLORIDE]
EC50 [5]: 14000 nM | selectivity ratio [6]: 3

C=CC(C)(CC/C=C(\C)CCC=C(C)C)c1cc(O)c(O)c(-c2cc(C(C)(C=C)CC/C=C(\C)CCC=C(C)C)cc(O)c2O)c1 (centres undefined) [PELTATOL A]
EC50 [12]: 8000 nM

CC(C)CC(=O)N[C@H](C(=O)N[C@H](C(=O)N[C@@H](CC(C)C)[C@@H](O)CC(=O)N[C@@H](C)C(=O)N[C@@H](CC(C)C)[C@@H](O)CC(=O)O)C(C)C)C(C)C [PEPSTATIN]
EC50 [8]: 51800 nM | EC50 [17]: 69000 nM | EC50 [18]: 150000 nM

CC(=O)O[C@@]12C[C@@H](C)[C@@]3(O)[C@@H](C=C(CO)C[C@]4(O)C(=O)C(C)=C[C@@H]34)[C@@H]1C2(C)C [PROSTRATIN]
EC50 [12]: ≤ 132 nM

Cc1cn([C@H]2C=C[C@@H](CO)O2)c(=O)[nH]c1=O [STAVUDINE]
EC50 [16]: 60 nM | EC50 [8]: 60 nM

C=C1C(=O)[C@]23C[C@H]1CC[C@H]2[C@]1(C)CCC[C@@](C)(C(=O)O)[C@H]1C[C@@H]3OC(C)=O [XYLOPINIC ACID]
EC50 [12]: ≤ 900 nM

Nc1ccn([C@H]2CC[C@@H](CO)O2)c(=O)n1 [ZALCITABINE]
EC50 [16]: 1 nM | EC50 [8]: 1 nM | selectivity ratio [13]: 200 | selectivity ratio [9]: 200

Cc1cn([C@H]2C[C@H](N=[N+]=[N-])[C@@H](CO)O2)c(=O)[nH]c1=O [ZIDOVUDINE]
EC50 [16]: 1 nM | EC50 [8]: 1 nM | selectivity ratio [13]: > 1000 | selectivity ratio [9]: > 1000
